Laboratory results from patent US9096524B2, “Anthelmintic agents and their use” (Intervet International B.V., priority 2009, dated 2015).
Read-outs that look alike come from different tables or passages of the source.

Test system: A. galli (intestinal roundworm of chicken) larval stage 3; O. dentatum (nodular worm of swine) larval stages 3 and 4
Assay: Activity against Ascaridia galli and Oesophagostomum dentatum larvae in vitro (minimum effective concentration)
Format: cell-based
[1] = in vitro, one or more of A. galli L3, O. dentatum L3, L4, threshold 1 μM, read-out: MEC (minimum effective concentration) against one or more of the tested nematodes
[2] = in vitro, two or more of A. galli L3, O. dentatum L3, L4, threshold 1 μM, read-out: MEC (minimum effective concentration) against two or more of the tested nematodes
[3] = read-out: MEC (minimum effective concentration) against one or more of the tested nematodes, in vitro, one or more of A. galli L3, O. dentatum L3, L4, threshold 1 μM
[4] = read-out: MEC (minimum effective concentration) against one or more of the tested nematodes, in vitro, one or more of A. galli L3, O. dentatum L3, L4, threshold 7 μM
[5] = read-out: MEC (minimum effective concentration) against two or more of the tested nematodes, in vitro, two or more of A. galli L3, O. dentatum L3, L4, threshold 1 μM
[6] = in vitro, one or more of A. galli L3, O. dentatum L3, L4, threshold 7 μM, read-out: MEC (minimum effective concentration) against one or more of the tested nematodes

Row | Structure (SMILES) | minimal effective concentration [1] [µM] | minimal effective concentration [2] [µM] | other results
1 | O=C(CCN1CCN(c2ccccc2)CC1)N1CCC(Nc2ccc([N+](=O)[O-])c(C(F)(F)F)c2)CC1 [Example 171] | < 1 | < 1 | –
2 | O=C(CCCN1CCN(c2ccc(C(F)(F)F)cc2)CC1)N1CCC(Oc2ccc([N+](=O)[O-])c(C(F)(F)F)c2)CC1 [Example 79, 1-[4-(4-nitro-3-trifluoromethyl-phenoxy)-piperidin-1-yl]-4-[4-(4-trifluoromethyl-phenyl)-piperazin-1-yl]-butan-1-one] | – | – | minimal effective concentration [3]: < 1 µM; minimal effective concentration [4]: < 7 µM; minimal effective concentration [5]: < 1 µM
3 | CCOc1cc(NC2CCN(C(=O)CCN3CCN(c4ccc(Cl)cc4F)CC3)CC2)ccc1[N+](=O)[O-] [Example 410] | – | – | minimal effective concentration [6]: < 7 µM
4 | COc1ccc(N2CCN(CCC(=O)N3CCC(Oc4ccc([N+](=O)[O-])c(C(F)(F)F)c4)CC3)CC2)cc1OC [Example 424] | – | < 1 | –
5 | CC(C)(C)c1ccc(N2CCN(CCC(=O)N3CCC(Oc4ccc([N+](=O)[O-])c(C(F)(F)F)c4)CC3)CC2)cc1 [Example 220] | – | < 1 | –
6 | O=C(CCCN1CCN(c2cccc(Cl)c2)CC1)NC1CCN(c2ccc(C(F)(F)F)cn2)CC1 [Example 648] | < 1 | – | –
7 | O=C(CCCN1CCN(c2ccc(Cl)cc2)CC1)N1CCC(Nc2ccc([N+](=O)[O-])cn2)CC1 [Example 559] | – | < 1 | –
8 | O=C(CCCC1CCN(c2ccc(C(F)(F)F)cc2)CC1)N1CC[C@H](Nc2ccc([N+](=O)[O-])c(C(F)(F)F)c2)C1 [Example 733] | < 1 | – | minimal effective concentration [6]: < 7 µM
9 | CC(C)(C)c1ccc(N2CC3CN(CCC(=O)N4CCC(Nc5ccc([N+](=O)[O-])c(C(F)(F)F)c5)CC4)CC3C2)cc1 (stereo not shown) [Example 128, 3-[5-(4-tert-butyl-phenyl)-hexahydro-pyrrolo[3,4-c]pyrrol-2-yl]-1-[4-(4-nitro-3-trifluoromethyl-phenylamino)-piperidin-1-yl]-propan-1-one] | – | – | minimal effective concentration [3]: < 1 µM; minimal effective concentration [4]: < 7 µM; minimal effective concentration [5]: < 1 µM
10 | N#Cc1ccc(N2CCCN(C(=O)CCCN3CCN(c4ccc(C(F)(F)F)cc4)CC3)CC2)cc1C(F)(F)F [Example 1008] | < 1 | – | –
11 | O=C(CCCC1CCN(c2ccc(Cl)cc2)CC1)N1CC[C@@H](Nc2ccc([N+](=O)[O-])c(C(F)(F)F)c2)C1 [Example 774] | < 1 | < 1 | –
12 | CC(C)(C)c1ccc(N2CCN(CCC(=O)N3CCC(Nc4cccc(C#N)c4)CC3)CC2)cc1 [Example 351] | < 1 | – | –
13 | N#Cc1ccc(NC2CCN(C(=O)CCCN3CCN(c4ccc(C(F)(F)F)cc4)CC3)CC2)cc1Cl [Example 105, 2-chloro-4-(1-{4-[4-(4-trifluoromethyl-phenyl)-piperazin-1-yl]-butyryl}-piperidin-4-ylamino)-benzonitrile] | – | – | minimal effective concentration [3]: < 1 µM; minimal effective concentration [4]: < 7 µM; minimal effective concentration [5]: < 1 µM
14 | O=C(CCCN1CCN(c2ccc(C(F)(F)F)cc2)CC1)N1CCC(Nc2ccc(C(F)(F)F)cc2)CC1 [Example 269] | – | < 1 | –
15 | COc1ccc(C2CCN(CCC(=O)N3CCC(Oc4ccc([N+](=O)[O-])c(C(F)(F)F)c4)CC3)CC2)cc1 [Example 435] | – | < 1 | –
16 | O=C(COC1CCN(c2ccc([N+](=O)[O-])c(C(F)(F)F)c2)CC1)N1CCN(c2ccc(Cl)cc2)CC1 [Example 179] | < 1 | – | –
17 | O=C(CCN1CCN(c2ccc(C(F)(F)F)cc2)CC1)N1CCCN(c2ccc([N+](=O)[O-])c(C(F)(F)F)c2)CC1 [Example 997] | – | – | minimal effective concentration [6]: < 7 µM
18 | O=C(CCN1CCN(c2ccc(OCc3ccccc3)cc2)CC1)N1CCC(Oc2ccc([N+](=O)[O-])c(C(F)(F)F)c2)CC1 [Example 423] | – | < 1 | –
19 | CC(C)(C)c1ccc(N2CCN(CCCC(=O)N3CCC(Nc4ccnc(C(F)(F)F)c4)CC3)CC2)cc1 [Example 591] | – | < 1 | –
20 | CC(CN1CCN(c2ccc(Cl)cc2)CC1)C(=S)N1CCC(Nc2ccc(C#N)c(C(F)(F)F)c2)CC1 (stereo not shown) [Example 668] | – | < 1 | –
21 | O=C(CCCN1CC2CN(c3ccc(C(F)(F)F)cc3)CC2C1)N1CCC(Nc2ccc([N+](=O)[O-])c(C(F)(F)F)c2)CC1 (stereo not shown) [Example 715] | < 1 | < 1 | –
22 | O=[N+]([O-])c1ccc(OC2CCN(C(=S)CCN3CCC(OCc4ccc(C(F)(F)F)cc4)CC3)CC2)cc1C(F)(F)F [Example 695] | < 1 | < 1 | –
23 | COc1cc(NC2CCN(C(=O)CCN3CCC(c4ccc(Oc5ccccc5)cc4)CC3)CC2)ccc1[N+](=O)[O-] [Example 376] | < 1 | – | –
24 | O=C(CCCN1CCN(c2ccc(C(F)(F)F)cc2)CC1)N1CCCN(c2ccc([N+](=O)[O-])c(C(F)(F)F)c2)CC1 [Example 1001] | – | – | minimal effective concentration [6]: < 7 µM
25 | N#Cc1ccc(N2CCN(C(=O)CCN3CCC(Nc4ccc([N+](=O)[O-])c(C(F)(F)F)c4)CC3)CC2)cc1 [Example 200] | < 1 | – | –

Row | Structure (SMILES) | minimal effective concentration [1] [µM] | minimal effective concentration [2] [µM] | other results
26 | O=C(CCN1CCC(c2ccc(-c3ccccc3)cc2)CC1)N1CCC(Oc2ccc([N+](=O)[O-])c(C(F)(F)F)c2)CC1 [Example 442] | – | – | minimal effective concentration [6]: < 7 µM
27 | COc1ccc(N2CCN(CCCC(=O)N3CCC(Nc4ccc(C#N)c(C(F)(F)F)c4)CC3)CC2)cn1 [Example 760] | – | – | minimal effective concentration [5]: < 1 µM
28 | COc1cc(OC2CCN(C(=O)CCN3CCN(c4ccc(C(F)(F)F)cc4)CC3)CC2)ccc1[N+](=O)[O-] [Example 479] | – | – | minimal effective concentration [6]: < 7 µM
29 | O=C(CCCN1CCN(c2nnc(C(F)(F)F)s2)CC1)N1CC[C@@H](Nc2ccc([N+](=O)[O-])c(C(F)(F)F)c2)C1 [Example 784] | < 1 | – | –
30 | CCOc1cc(OC2CCN(C(=O)CCN3CCC(c4ccc(C(C)(C)C)cc4)CC3)CC2)ccc1[N+](=O)[O-] [Example 509] | < 1 | – | –
31 | CCOc1cc(OC2CCN(C(=O)CCN3CCN(c4ccc(-c5ccccc5)cc4)CC3)CC2)ccc1[N+](=O)[O-] [Example 578] | – | < 1 | –
32 | C[S+]([O-])c1ccc(NC2CCN(C(=O)CCN3CCN(c4ccc(C(C)(C)C)cc4)CC3)CC2)cc1C(F)(F)F (stereo not shown) [Example 299] | – | < 1 | –
33 | O=C(CCN1CCN(c2cccc(OC(F)(F)F)c2)CC1)N1CCC(Oc2ccc([N+](=O)[O-])c(C(F)(F)F)c2)CC1 [Example 225] | – | < 1 | –
34 | CCOc1cc(NC2CCN(C(=O)CCN3CCN(c4ccc(Cl)cc4)CC3)CC2)ccc1[N+](=O)[O-] [Example 405] | – | – | minimal effective concentration [6]: < 7 µM
35 | Cc1ccc(N2CCN(CCS(=O)(=O)N3CCC(Nc4ccc([N+](=O)[O-])c(C(F)(F)F)c4)CC3)CC2)cc1 [Example 243] | – | < 1 | –
36 | O=C(CCN1CCN(c2ccccc2)CC1)N1CCC(Nc2ccc([N+](=O)[O-])c(C(F)(F)F)c2)CC1 [Example 169] | – | – | minimal effective concentration [6]: < 7 µM
37 | COc1cc(NC2CCN(C(=O)CCN3CCN(c4ccc(Cl)c(C(F)(F)F)c4)CC3)CC2)ccc1[N+](=O)[O-] [Example 384] | – | – | minimal effective concentration [6]: < 7 µM
38 | N#Cc1ccc(N2CCC(NC(=S)CCCN3CCN(c4ccc(C(F)(F)F)cc4)CC3)CC2)cc1C(F)(F)F [Example 662] | – | < 1 | –
39 | O=C(CCCN1CCN(c2ccc(Cl)cc2)CC1)N1CCCN(c2ccc(SC(F)(F)F)cc2)CC1 [Example 1028] | < 1 | – | –
40 | O=C(CCN1CCN(c2nnc(C(F)(F)F)s2)CC1)N1CC[C@H](Nc2ccc([N+](=O)[O-])c(C(F)(F)F)c2)C1 [Example 720] | < 1 | – | –
41 | N#Cc1ccc(N2CCC(NC(=O)CCCN3CCN(c4ccc(C(F)(F)F)cc4)CC3)CC2)cc1C(F)(F)F [Example 619] | – | – | minimal effective concentration [5]: < 1 µM
42 | O=C(CCN1CCN(c2ccc(C(F)(F)F)cc2)CC1)N1CC[C@H](Nc2ccc([N+](=O)[O-])c(C(F)(F)F)c2)C1 [Example 285] | < 1 | – | –
43 | CC(C)(C)c1ccc(N2CCN(CCC(=O)N3CC[C@@H](Nc4ccc([N+](=O)[O-])c(C(F)(F)F)c4)C3)CC2)cc1 [Example 790] | < 1 | – | –
44 | N#Cc1ccc(NC2CCN(C(=O)CCCC3CCN(c4ccc(C(F)(F)F)cc4)CC3)CC2)cc1C(F)(F)F [Example 156, 2-trifluoromethyl-4-(1-{4-[1-(4-trifluoromethyl-phenyl)-piperidin-4-yl]-butyryl}-piperidin-4-ylamino)-benzonitrile] | < 1 | < 1 | minimal effective concentration [6]: < 7 µM
45 | O=C(CC(=O)N1CCN(c2ccc(Cl)c(C(F)(F)F)c2)CC1)N1CCC(Nc2ccc([N+](=O)[O-])c(C(F)(F)F)c2)CC1 [Example 202] | – | < 1 | –
46 | O=C(CCN1CCC(c2ccc(C(F)(F)F)cc2)CC1)N1CCC(Oc2ccc([N+](=O)[O-])c(C(F)(F)F)c2)CC1 [Example 438] | – | < 1 | –
47 | CS(=O)(=O)c1ccc(NC2CCN(C(=O)CCN3CCN(c4ccc(Cl)cc4)CC3)CC2)cc1C(F)(F)F [Example 341] | < 1 | < 1 | –
48 | O=C(CCN1CCC(Nc2ccc([N+](=O)[O-])c(C(F)(F)F)c2)CC1)N1CCN(c2ccc(Cl)cc2)CC1 [Example 199] | < 1 | – | –
49 | O=C(CCN1CCN(c2cccc(C(F)(F)F)c2)CC1)N1CCC(Nc2ccc([N+](=O)[O-])c(C(F)(F)F)c2)CC1 [Example 183] | – | < 1 | –
50 | CC(N1CCN(c2ccc(Cl)cc2)CC1)C(C)(C)C(=O)N1CCC(Nc2ccc([N+](=O)[O-])c(C(F)(F)F)c2)CC1 (stereo not shown) [Example 586] | – | < 1 | –
